Test system: dopamine receptor D1
Details: co-imaging, quinpirole first, then SKF38393, FIG. 5A
Method: To minimize a photobleaching phenomenon, the live fluorescence microscope was set. When stimulated with light at a wavelength of 560 nm in the live fluorescence microscope, intensity at a cpRFP fluorescence wavelength of 610 nm was measured.
To induce fluorescence intensity suitable for experiments, 50 msec exposure and ND16 intensity were maintained. The fluorescence cycle was performed for total 10 minutes by measuring cpRFP images for 1 minute using the fluorescence microscope.
The saved images were analyzed using an NIS program (Nikon). cpRFP fluorescence intensity of the entire single cells in the regions of interest (ROI) was analyzed in the NIS program.

Oc1cc2c(cc1O)C(c1ccccc1)CNCC2 (stereo not shown) [SKF38393]
fluorescence of red biosensor DRD1 Red 1.3 on ligand treatment: increase in fluorescence by selective response

Reference: patent US11860166B2 (KOREA INSTITUTE OF SCIENCE AND TECHNOLOGY, priority 2019, dated 2024)
